Assays:
IDH2^R172K = biological target: T1, IDH2^R172K (Homo sapiens, UniProt P48735, R172K); test: NADPH depletion assay (diaphorase/resazurin), IDH2 R172K; assay type: biochemical; settings: IDH2^R172K 16 nM, alpha-ketoglutarate 0.55 mM
T1 sequence (P48735 40-452 R172K): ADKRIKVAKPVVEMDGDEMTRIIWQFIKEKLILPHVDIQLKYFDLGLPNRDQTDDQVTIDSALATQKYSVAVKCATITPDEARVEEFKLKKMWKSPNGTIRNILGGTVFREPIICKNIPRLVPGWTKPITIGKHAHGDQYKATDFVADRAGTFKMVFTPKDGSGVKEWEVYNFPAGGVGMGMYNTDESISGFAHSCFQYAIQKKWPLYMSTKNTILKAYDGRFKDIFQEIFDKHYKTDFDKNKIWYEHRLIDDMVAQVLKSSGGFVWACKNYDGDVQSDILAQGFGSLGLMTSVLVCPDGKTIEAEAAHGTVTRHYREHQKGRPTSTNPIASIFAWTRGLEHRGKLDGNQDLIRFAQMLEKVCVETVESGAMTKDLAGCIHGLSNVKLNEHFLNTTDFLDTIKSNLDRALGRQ
Method: (§1) IDH mutated enzyme activity converting alpha-ketoglutarate to 2-hydroxyglutaric acid is measured using a NADPH depletion assay. In the assay the remaining cofactor is measured at the end of the reaction with the addition of a catalytic excess of diaphorase and resazurin, to generate a fluorescent signal in proportion to the amount of NADPH remaining. IDH1 WT enzyme as well as mutated isoforms IDH1^R132H, IDH1^R132C, and IDH2^R172K enzymes are commercially available proteins (see e.g. Sino Biological, Abcam, Active Motif or Creative BioMart).
(§2) IDH1^R132H homodimer enzyme are diluted to 8 nM, in 10 μL of Assay Buffer (150 mM NaCl, 50 mM Tris-HCl pH 7.6, 10 mM MgCl2, 0.001% Triton X-100, 4 mM β-mercaptoethanol); 0.2 μL of test compound, previously serially diluted 1 to 3, >10 experimental points from 1 mM in DMSO, is added and the mixture is incubated for 15 minutes at room temperature. The reaction is started with the addition of 10 μL of Substrate Mix (12 μM NADPH, 3.4 mM alpha-ketoglutarate in Assay Buffer) and the mixture is incubated for 60 minutes at room temperature. The reaction is terminated with the addition of 5 μl of Detection Buffer (100 μg/mL diaphorase, 30 μM resazurin, in IX Assay Buffer), and is incubated for 15 minutes before reading on a ViewLux as platereader at Ex544/Em590.
Compounds are assayed for their activity against IDH2^R172K following the same assay as above with the following modifications: IDH2^R172K and alpha-ketoglutarate final concentrations in the Assay Buffer is 16 nM and 0.55 mM, respectively.

IDH1 wild type enzyme = IDH1 wild type enzyme (Homo sapiens, UniProt O75874); test: Enzymatic assay for IDH1 wild-type (NADPH forming assay); assay type: biochemical; settings: 0.016 nM IDH1WT, 15 min preincubation
IDH1 wild type enzyme, sequence (O75874 whole entry): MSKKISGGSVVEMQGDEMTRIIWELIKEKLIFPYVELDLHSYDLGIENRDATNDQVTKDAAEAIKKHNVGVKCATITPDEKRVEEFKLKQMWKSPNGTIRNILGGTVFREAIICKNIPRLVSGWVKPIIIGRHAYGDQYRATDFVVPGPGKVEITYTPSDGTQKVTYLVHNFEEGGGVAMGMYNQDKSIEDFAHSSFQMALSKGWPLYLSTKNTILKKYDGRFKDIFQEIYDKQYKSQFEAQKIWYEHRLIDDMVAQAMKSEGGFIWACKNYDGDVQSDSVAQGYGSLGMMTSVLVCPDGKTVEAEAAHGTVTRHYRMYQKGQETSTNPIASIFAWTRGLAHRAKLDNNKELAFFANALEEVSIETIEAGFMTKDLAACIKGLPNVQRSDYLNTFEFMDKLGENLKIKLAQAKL
Method: IDH1WT enzymatic activity converting isocitric acid to alpha-ketoglutarate is measured using a NADPH forming assay. In the assay the forming cofactor is measured in continuous with the addition of a catalytic excess of diaphorase and resazurin, to generate a fluorescent signal in proportion to the amount of NADPH forming.
Compounds were preincubated with the enzyme, then the reaction was started by the addition of NADP+, isocitrate, diaphorase and a corresponding substrate, resazurin. Diaphorase reduces resazurin to the highly fluorescent resorufin with the concomitant oxidation of NADPH to NADP. Specifically, 0.2 μL of test compound, previously serially diluted 1 to 3, >10 experimental points from 1 mM in DMSO, was added to 0.016 nM IDH1WT enzyme in 10 μL of Assay Buffer (150 mM NaCl, 50 mM Tris-HCl pH 7.6, 10 mM MgCl2, 0.001% Triton X-100, 4 mM β-mercaptoethanol); the mixture is incubated for 15 minutes at room temperature. The reaction is started with the addition of 10 μL of Substrate Mix (400 μM NADP^+, 40 μM iso-citrate, 5 ugr/mL Diaphorase and 7 μM resazurin in Assay Buffer), the mixture is incubated at room temperature and the reaction is reading on a ViewLux as platereader at Ex544/Em590 in continuous.

[1] = tested on: cell lines HT-1080 (IDH1^R132C); test: Cellular assay: inhibition of 2HG production, LC-MS/MS; assay type: cell-based; settings: Homo sapiens, 72 hr incubation, 2-HG in cell culture media, read-out: HT1080 2-HG IC50
Method: Cell lines HT-1080 (commercially available) are maintained in E-MEM 10% FCS and incubated at 37° C. in a humidified 5% CO2 atmosphere.
Cells are seeded into 96 well black flat bottom plates at a density of 500 cells/well in 100 μL complete medium. After 24 hr the medium is replaced with 200 μL of fresh medium and compounds (dissolved into DMSO) are administrated to the cells using D300E Digital Dispenser (Tecan).
After 72 hr of incubation 100 μL from each well are collected and used for 2HG (R(−)-2-hydroxyglutarate) quantification. Levels of 2-HG in cell culture media are determined by LC-MS/MS. Cell supernatants (100 μL/well) are treated with 1 M aqueous trichloroacetic acid containing 130 μM of the internal standard 2-HG-d3 (20 μL/well) in a 96-well plate. The plates are sealed, mildly vortexed for 60 minutes, centrifuged at 4,000 RPM for 15 minutes, placed in a refrigerated autosampler taking care not to shake them, and aliquots of the upper part of the samples are directly injected in the chromatographic system. Calibration standards are obtained by ten folds dilution of aqueous 2-HG stock solutions with blank cell culture medium and denatured exactly in the same way as described above for samples. Samples and standards are assayed for 2-HG by reversed phase chromatography on a C18 column eluted with aqueous 0.15% formic acid and briefly washed with 90% methanol at the end of the run. 2-HG is determined by negative ion electrospray ionization with the internal standard method on a triple quadrupole mass spectrometer monitoring the MRM transitions 147>129 (2-HG) and 150>132 (2-HG-d3).
2-HG inhibition was calculated by comparing treated versus control data using Assay Explore (Symyx) software, with IC50 determined using a sigmoidal fitting algorithm.

IDH1^R132H = IDH1^R132H (Homo sapiens, UniProt O75874, R132H); test: NADPH depletion assay (diaphorase/resazurin), IDH1 R132H; assay type: biochemical; settings: 15 min preincubation, 60 min reaction, room temperature
IDH1^R132H, sequence (O75874 whole entry R132H): as the sequence (O75874 whole entry) above, with R132H counted along it
Method: as §1, §2

IDH1^R132C = IDH1^R132C (Homo sapiens, UniProt O75874, R132C); test: NADPH depletion assay (diaphorase/resazurin), IDH1 R132C; assay type: biochemical; settings: IDH1^R132C 2 nM, alpha-ketoglutarate 0.14 mM; read-out: IDH1^R132C IC50
IDH1^R132C, sequence (O75874 whole entry R132C): as the sequence (O75874 whole entry) above, with R132C counted along it
Method: as §1, §2
Compounds are assayed for their activity against IDH1^R132C following the same assay as above with the following modifications: IDH1^R132C and alpha-ketoglutarate final concentrations in the Assay Buffer is 2 nM and 0.14 mM, respectively.

Structure (SMILES) | IC50 (IDH2^R172K) [µM] | IC50 (IDH1 wild type enzyme) [µM] | IC50 [1] [µM] | IC50 (IDH1^R132H) [µM] | IC50 (IDH1^R132C) [µM]
C=CC(=O)N1CCN(C2(c3ccc([C@H](C)Nc4ncc5ccc(=O)n(C(C)C)c5n4)cc3)CCC(F)(F)CC2)CC1 [cpd 26, 2-{[(1S)-1-{4-[1-(4-acryloylpiperazin-1-yl)-4,4-difluorocyclohexyl]phenyl}ethyl]amino}-8-(propan-2-yl)pyrido[2,3-d]pyrimidin-7(8H)-one] | 0.126 | 0.126 | 0.0005 | 0.003 | 0.002
C=CC(=O)N1CCN(C2(c3ccc([C@H](C)Nc4cc5c(ccc(=O)n5C(C)C)cn4)cc3)CCC(F)(F)CC2)CC1 [cpd 47, 7-{[(1S)-1-{4-[1-(4-acryloylpiperazin-1-yl)-4,4-difluorocyclohexyl]phenyl}ethyl]amino}-1-(propan-2-yl)-1,6-naphthyridin-2(1H)-one] | 0.097 | 0.0974 | 0.0006 | 0.002 | 0.001
C=CC(=O)N1CCN(C2(c3ccc(C(C)(C)Nc4ncc5ccc(=O)n(C(C)C)c5n4)cc3)CCC(F)(F)CC2)CC1 [cpd 52, 2-[(2-{4-[1-(4-acryloylpiperazin-1-yl)-4,4-difluorocyclohexyl]phenyl}propan-2-yl)amino]-8-(propan-2-yl)pyrido[2,3-d]pyrimidin-7(8H)-one] | 0.322 | 0.321 | 0.004 | 0.014 | 0.009
C=CC(=O)N1CCN(C(CC)(CC)c2ccc([C@H](C)Nc3ncc4ccc(=O)n(C(C)C)c4n3)cc2)CC1 [cpd 4, 2-{[(1S)-1-{4-[3-(4-acryloylpiperazin-1-yl)pentan-3-yl]phenyl}ethyl]amino}-8-(propan-2-yl)pyrido[2,3-d]pyrimidin-7(8H)-one] | 0.0228 | 0.313 | 0.0006 | 0.0038 | 0.0017
CCC(=O)N1CCN(C2(c3ccc([C@H](C)Nc4ncc5ccc(=O)n(C(C)C)c5n4)cc3)CCOCC2)CC1 [cpd 8, 2-{[(1S)-1-{4-[4-(4-propanoylpiperazin-1-yl)tetrahydro-2H-pyran-4-yl]phenyl}ethyl]amino}-8-(propan-2-yl)pyrido[2,3-d]pyrimidin-7(8H)-one] | – | – | 1.93 | – | 1.32
C=CC(=O)N1CCN(C2(c3ccc([C@H](C)Nc4ncc5ccc(=O)n(C(C)C)c5n4)cc3)CCN(C(C)=O)CC2)CC1 [cpd 6, 2-{[(1S)-1-{4-[1-acetyl-4-(4-acryloylpiperazin-1-yl)piperidin-4-yl]phenyl}ethyl]amino}-8-(propan-2-yl)pyrido[2,3-d]pyrimidin-7(8H)-one] | – | – | 0.0052 | – | 0.0059
C=CC(=O)N1CCN(C2(c3ccc([C@H](C)Nc4ncc5ccc(=O)n(C(C)C)c5n4)cc3)COC2)CC1 [cpd 3, 2-{[(1S)-1-{4-[3-(4-acryloylpiperazin-1-yl)oxetan-3-yl]phenyl}ethyl]amino}-8-(propan-2-yl)pyrido[2,3-d]pyrimidin-7(8H)-one] | – | – | 0.013 | – | 0.0272
C=CC(=O)N1CCN(C2(c3ccc([C@H](C)Nc4ncc5ccc(=O)n(C(C)C)c5n4)cc3)CCOCC2)CC1 [cpd 1, 2-{[(1S)-1-{4-[4-(4-acryloylpiperazin-1-yl)tetrahydro-2H-pyran-4-yl]phenyl}ethyl]amino}-8-(propan-2-yl)pyrido[2,3-d]pyrimidin-7(8H)-one] | 0.111 | 0.133 | 0.0024 | 0.0035 | 0.0033

Continued, values first:

IC50 (IDH2^R172K) [µM] | IC50 (IDH1 wild type enzyme) [µM] | IC50 [1] [µM] | IC50 (IDH1^R132H) [µM] | IC50 (IDH1^R132C) [µM] | Structure (SMILES)
0.291 | 0.364 | 0.0026 | 0.0064 | 0.0048 | C=CC(=O)N1CCN(C2(c3ccc([C@H](C)Nc4cc5c(ccc(=O)n5C(C)C)cn4)cc3)CCOCC2)CC1 [cpd 11, 7-{[(1S)-1-{4-[4-(4-acryloylpiperazin-1-yl)tetrahydro-2H-pyran-4-yl]phenyl}ethyl]amino}-1-(propan-2-yl)-1,6-naphthyridin-2(1H)-one]
0.516 | 0.516 | 0.01 | 0.02 | 0.005 | C=CC(=O)N1CC(N(C)C2(c3ccc([C@H](C)Nc4ncc5ccc(=O)n(C(C)C)c5n4)cc3)CCC(F)(F)CC2)C1 [cpd 50, 2-{[(1S)-1-(4-{1-[(1-acryloylazetidin-3-yl)(methyl)amino]-4,4-difluorocyclohexyl}phenyl)ethyl]amino}-8-(propan-2-yl) pyrido[2,3-d]pyrimidin-7(8H)-one]
– | – | 0.065 | – | 0.047 | C=CC(=O)N1CC(N(C)C2(c3ccc([C@H](C)Nc4cc5c(ccc(=O)n5C(C)C)cn4)cc3)CCOCC2)C1 [cpd 48, 7-{[(1S)-1-(4-{4-[(1-acryloylazetidin-3-yl)(methyl)amino]tetrahydro-2H-pyran-4-yl}phenyl)ethyl]amino}-1-(propan-2-yl)-1,6-naphthyridin-2(1H)-one]
– | – | 0.067 | – | 0.125 | C=CC(=O)N1CCN(C2(c3ccc([C@@H](C)Nc4ncc5ccc(=O)n(C(C)C)c5n4)cc3)CCOCC2)CC1 [cpd 9, 2-{[(1R)-1-{4-[4-(4-acryloylpiperazin-1-yl)tetrahydro-2H-pyran-4-yl]phenyl}ethyl]amino}-8-(propan-2-yl)pyrido[2,3-d]pyrimidin-7(8H)-one]
– | – | 0.009 | – | 0.0247 | C=CC(=O)N1CCN(C2(c3ccc([C@H](C)Nc4ncc5c(C)cc(=O)n(C6CCCC6)c5n4)cc3)CCOCC2)CC1 [cpd 15, 2-{[(1S)-1-{4-[4-(4-acryloylpiperazin-1-yl)tetrahydro-2H-pyran-4-yl]phenyl}ethyl]amino}-8-cyclopentyl-5-methylpyrido[2,3-d]pyrimidin-7(8H)-one]

Reference: patent US12521395B2, “Gem-disubstituted heterocyclic compounds and their use as IDH inhibitors” (NERVIANO MEDICAL SCIENCES S.R.L., priority 2019, dated 2026)
